Values quoted from earlier work in PubChem BioAssay AID1259409 (Chemical Carcinogenesis Research Information System (CCRIS), 2018).
“And” between values parts separate entries of the source, which are not always exact repeats. Equal entries are not always repeated.

System: rodent chemically induced tumor inhibition, incidence and multiplicity
Assay: CCRIS tumor inhibitor studies

Row | SMILES | tumour outcome (control, treated, inhibition, significance) (Carcinogen: N-METHYL-N'-NITRO-NITROSOGUANIDINE, 13830-58-5, Dose [Inhibitor]: 0, 3.2 PPM IN FEED FOR 42 WK BEGINNING 1 MO POST CARCINOGEN TREATMENT (STUDY DURATION: 64 WK), Route [Inhibitor]: ORAL, Species: FISH, Strain/Sex: SHASTA RAINBOW TROUT/MALE,FEMALE, Target Tissue: Type of Lesion: KIDNEY: TUMOR, Dose [Carcinogen]: 35 PPM IN WATER FOR 30 MIN, Promoter: NONE) | tumour outcome (control, treated, inhibition, significance) (Carcinogen: N-METHYL-N'-NITRO-NITROSOGUANIDINE, 13830-58-5, Dose [Inhibitor]: 0, 3.2 PPM IN FEED FOR 42 WK BEGINNING 1 MO POST CARCINOGEN TREATMENT (STUDY DURATION: 64 WK), Route [Inhibitor]: ORAL, Species: FISH, Strain/Sex: SHASTA RAINBOW TROUT/MALE,FEMALE, Target Tissue: Type of Lesion: LIVER: TUMOR, Dose [Carcinogen]: 35 PPM IN WATER FOR 30 MIN, Promoter: NONE) | tumour outcome (control, treated, inhibition, significance) (Carcinogen: N-METHYL-N'-NITRO-NITROSOGUANIDINE, 13830-58-5, Dose [Inhibitor]: 0, 3.2 PPM IN FEED FOR 42 WK BEGINNING 1 MO POST CARCINOGEN TREATMENT (STUDY DURATION: 64 WK), Route [Inhibitor]: ORAL, Species: FISH, Strain/Sex: SHASTA RAINBOW TROUT/MALE,FEMALE, Target Tissue: Type of Lesion: STOMACH: TUMOR, Dose [Carcinogen]: 35 PPM IN WATER FOR 30 MIN, Promoter: NONE) | tumour outcome (control, treated, inhibition, significance) (Carcinogen: N-METHYL-N'-NITRO-NITROSOGUANIDINE, 13830-58-5, Dose [Inhibitor]: 0, 3.2 PPM IN FEED FOR 42 WK BEGINNING 1 MO POST CARCINOGEN TREATMENT (STUDY DURATION: 64 WK), Route [Inhibitor]: ORAL, Species: FISH, Strain/Sex: SHASTA RAINBOW TROUT/MALE,FEMALE, Target Tissue: Type of Lesion: SWIM BLADDER: TUMOR, Dose [Carcinogen]: 35 PPM IN WATER FOR 30 MIN, Promoter: NONE) | tumour outcome (control, treated, inhibition, significance) (Carcinogen: N-METHYL-N'-NITRO-NITROSOGUANIDINE, 13830-58-5, Dose [Inhibitor]: 0, 23 PPM IN FEED FOR 42 WK BEGINNING 1 MO POST CARCINOGEN TREATMENT (STUDY DURATION: 64 WK), Route [Inhibitor]: ORAL, Species: FISH, Strain/Sex: SHASTA RAINBOW TROUT/MALE,FEMALE, Target Tissue: Type of Lesion: KIDNEY: TUMOR, Dose [Carcinogen]: 35 PPM IN WATER FOR 30 MIN, Promoter: NONE) | tumour outcome (control, treated, inhibition, significance) (Carcinogen: N-METHYL-N'-NITRO-NITROSOGUANIDINE, 13830-58-5, Dose [Inhibitor]: 0, 23 PPM IN FEED FOR 42 WK BEGINNING 1 MO POST CARCINOGEN TREATMENT (STUDY DURATION: 64 WK), Route [Inhibitor]: ORAL, Species: FISH, Strain/Sex: SHASTA RAINBOW TROUT/MALE,FEMALE, Target Tissue: Type of Lesion: STOMACH: TUMOR, Dose [Carcinogen]: 35 PPM IN WATER FOR 30 MIN, Promoter: NONE) | tumour outcome (control, treated, inhibition, significance) (Carcinogen: N-METHYL-N'-NITRO-NITROSOGUANIDINE, 13830-58-5, Dose [Inhibitor]: 0, 104 PPM IN FEED FOR 42 WK BEGINNING 1 MO POST CARCINOGEN TREATMENT (STUDY DURATION: 64 WK), Route [Inhibitor]: ORAL, Species: FISH, Strain/Sex: SHASTA RAINBOW TROUT/MALE,FEMALE, Target Tissue: Type of Lesion: KIDNEY: TUMOR, Dose [Carcinogen]: 35 PPM IN WATER FOR 30 MIN, Promoter: NONE) | tumour outcome (control, treated, inhibition, significance) (Carcinogen: N-METHYL-N'-NITRO-NITROSOGUANIDINE, 13830-58-5, Dose [Inhibitor]: 0, 104 PPM IN FEED FOR 42 WK BEGINNING 1 MO POST CARCINOGEN TREATMENT (STUDY DURATION: 64 WK), Route [Inhibitor]: ORAL, Species: FISH, Strain/Sex: SHASTA RAINBOW TROUT/MALE,FEMALE, Target Tissue: Type of Lesion: LIVER: TUMOR, Dose [Carcinogen]: 35 PPM IN WATER FOR 30 MIN, Promoter: NONE) | tumour outcome (control, treated, inhibition, significance) (Carcinogen: N-METHYL-N'-NITRO-NITROSOGUANIDINE, 13830-58-5, Dose [Inhibitor]: 0, 104 PPM IN FEED FOR 42 WK BEGINNING 1 MO POST CARCINOGEN TREATMENT (STUDY DURATION: 64 WK), Route [Inhibitor]: ORAL, Species: FISH, Strain/Sex: SHASTA RAINBOW TROUT/MALE,FEMALE, Target Tissue: Type of Lesion: STOMACH: TUMOR, Dose [Carcinogen]: 35 PPM IN WATER FOR 30 MIN, Promoter: NONE) | tumour outcome (control, treated, inhibition, significance) (Carcinogen: DIMETHYLNITROSAMINE [62-75-9], Dose [Inhibitor]: 100 MG/KG BW FOR 3 MO ADMINISTERED BEFORE CARCINOGEN (STUDY DURATION: 12 MO), Route [Inhibitor]: DIET, Species: MOUSE, Strain/Sex: B6C3F1/MALE, Target Tissue: Type of Lesion: LIVER: TUMOR, Dose [Carcinogen]: 5 MG/KG BW 3 X A WK FOR 2 MO, THEN 10 MG/KG 2 X WK FOR 4 WKS AFTER 3 MO OF GSPE) | tumour outcome (control, treated, inhibition, significance) (Carcinogen: DIMETHYLNITROSAMINE [62-75-9], Dose [Inhibitor]: 100 MG/KG BW FOR 9 MO AFTER CARCINOGEN TREATMENT (STUDY DURATION: 12 MO), Route [Inhibitor]: DIET, Species: MOUSE, Strain/Sex: B6C3F1/MALE, Target Tissue: Type of Lesion: LIVER: TUMOR, Dose [Carcinogen]: 5 MG/KG BW 3 X A WK FOR 2 MO, THEN 10 MG/KG 2 X WK FOR 1 MO) | tumour outcome (control, treated, inhibition, significance) (Carcinogen: DIMETHYLNITROSAMINE [62-75-9], Dose [Inhibitor]: 100 MG/KG BW FOR DURATION OF EXPERIMENT (STUDY DURATION: 12 MO), Route [Inhibitor]: DIET, Species: MOUSE, Strain/Sex: B6C3F1/MALE, Target Tissue: Type of Lesion: LIVER: TUMOR, Dose [Carcinogen]: 5 MG/KG BW 3 X A WK FOR 2 MO, THEN 10 MG/KG 2 X WK FOR 4 WKS)
1 | CCCC[C@@H](C)[C@@H](OC(=O)C[C@@H](CC(=O)O)C(=O)O)[C@H](C[C@@H](C)C[C@H](O)CCCC[C@@H](O)C[C@H](O)[C@H](C)N)OC(=O)C[C@@H](CC(=O)O)C(=O)O | 19%, 14%, 26%, not significant | 45%, 25%, 44%, not significant | 32%, 40%, -25%, not significant | 54%, 44%, 18%, not significant | 19%, 13%, 32%, not significant | 32%, 31%, 3%, not significant | 19%, 6%, 68%, p<0.05 | 45%, 76%, -69%, p<0.05 | 32%, 12%, 62%, p<0.05 and 54%, 51%, 6%, not significant | – | – | –
2 | COc1c(O)cc(C2Oc3c(c(O)cc(O)c3[C@H]3c4c(O)cc(O)cc4O[C@H](c4ccc(O)cc4)[C@@H]3O)C[C@H]2O)cc1O (some centres not stated) | – | – | – | – | – | – | – | – | – | 85% (dmn); 60% gspe before dmn, 29%, not calculated | 85% (dmn); 55% gspe, 35%, not calculated | 85% (dmn); 45% gspe, 47%, not calculated
